Measured values reported in ChEMBL document CHEMBL4334464, “From Phenylthiazoles to Phenylpyrazoles: Broadening the Antibacterial Spectrum toward Carbapenem-Resistant Bacteria” (J Med Chem, 2019).
In brackets after ≈: the same amount, converted by molar mass. Activity calls are given as the source filed them. The rule behind the calls is not given here.

What was measured:
Acinetobacter baumannii [1] = experiment: Antibacterial activity against carbapenem-resistant Acinetobacter baumannii ATCC BAA 1605 clinical isolates after 18 to 20 hrs in aerobic condition by CLSI-based broth microdilution assay; format: functional
Salmonella enteritidis = experiment: Ratio of MBC to MIC for Salmonella enteritidis ATCC 13076 clinical isolates; format: functional, Salmonella enterica subsp. enterica serovar Enteritidis
Streptococcus pneumoniae [2] = experiment: Ratio of MBC to MIC for […] Streptococcus pneumoniae ATCC 700677 clinical isolates; format: functional
Enterococcus faecalis = experiment: Ratio of MBC to MIC for vancomycin-resistant Enterococcus faecalis ATCC 51299 clinical isolates; format: functional
Klebsiella pneumoniae [3] = experiment: Ratio of MBC to MIC for Klebsiella pneumoniae BAA-1706 after 18 to 20 hrs in aerobic condition by CLSI-based broth microdilution assay; format: functional
Escherichia coli [4] = experiment: Antimicrobial activity against Escherichia coli JW55031 harboring deltatolC mutant after 18 to 20 hrs in aerobic condition by CLSI protocol based broth microdilution assay; format: functional
Salmonella enterica = experiment: Antibacterial activity against Salmonella enterica NR-170 clinical isolates after 18 to 20 hrs in aerobic condition by CLSI-based broth microdilution assay; format: functional
Escherichia coli [5] = experiment: Ratio of MBC to MIC for Escherichia coli BW25113 clinical isolates; format: functional
Escherichia coli [6] = experiment: Antibacterial activity against carbapenem-resistant Escherichia coli BAA-2469 clinical isolates after 18 to 20 hrs in aerobic condition by CLSI-based broth microdilution assay; format: functional
Klebsiella pneumoniae [7] = experiment: Antibacterial activity against Klebsiella pneumoniae BAA-1706 clinical isolates after 18 to 20 hrs in aerobic condition by CLSI-based broth microdilution assay; format: functional
Staphylococcus aureus [8] = experiment: Antibiofilm activity against methicillin-resistant Staphylococcus aureus NRS384-USA300 clinical isolates assessed as inhibition of biofilm formation at 0.5 times MIC incubated for 24 hrs by crystal violet staining based spectrophotometric method relative to control; format: functional
Acinetobacter baumannii [9] = experiment: Antibacterial activity against Acinetobacter baumannii NR 17786 clinical isolates after 18 to 20 hrs in aerobic condition by CLSI-based broth microdilution assay; format: functional
Staphylococcus aureus [10] = experiment: Antibacterial activity against linezolid-resistant/Methicillin-resistant Staphylococcus aureus NRS119 clinical isolates after 18 to 20 hrs in aerobic condition by CLSI protocol based broth microdilution assay; format: functional
Clostridioides difficile [11] = experiment: Ratio of MBC to MIC for Clostridium difficile ATCC BAA 1870; format: functional
Salmonella typhimurium = experiment: Ratio of MBC to MIC for Salmonella typhimurium ATCC 700720 clinical isolates; format: functional, Salmonella enterica subsp. enterica serovar Typhimurium
Klebsiella pneumoniae [12] = experiment: Antibacterial activity against Klebsiella pneumoniae BAA-1144 clinical isolates after 18 to 20 hrs in aerobic condition by CLSI-based broth microdilution assay; format: functional
Staphylococcus aureus [13] = experiment: Ratio of MBC to MIC for Methicillin-sensitive Staphylococcus aureus NRS107 clinical isolates; format: functional
Acinetobacter baumannii [14] = experiment: Ratio of MBC to MIC for Acinetobacter baumannii ATCC BAA 1141 clinical isolates; format: functional
[15] = tested on: Staphylococcus epidermidis; experiment: Antibacterial activity against Staphylococcus epidermidis NRS101 after 18 to 20 hrs in aerobic condition by CLSI-based broth microdilution assay; format: functional
Pseudomonas aeruginosa [16] = experiment: microbe, parasite or virus in culture; settings: ATCC 9027
Description: Antibacterial activity against Pseudomonas aeruginosa ATCC 9027 clinical isolates after 18 to 20 hrs in aerobic condition by CLSI-based broth microdilution assay

Acinetobacter baumannii [17] = experiment: microbe, parasite or virus in culture; settings: ATCC BAA 1747
Description: Antibacterial activity against Acinetobacter baumannii ATCC BAA 1747 after 18 to 20 hrs in aerobic condition by CLSI-based broth microdilution assay

Escherichia coli [18] = experiment: Antibacterial activity against Escherichia coli ATCC 35150 clinical isolates after 18 to 20 hrs in aerobic condition by CLSI-based broth microdilution assay; format: functional
Streptococcus pneumoniae [19] = experiment: Antibacterial activity against cephalosporin-resistant Streptococcus pneumoniae ATCC 51916 clinical isolates after 18 to 20 hrs by CLSI-based broth microdilution assay; format: functional
Listeria monocytogenes = experiment: Antibacterial activity against Listeria monocytogenes ATCC 19111 after 18 to 20 hrs in aerobic condition by CLSI-based broth microdilution assay; format: functional
Clostridioides difficile [20] = experiment: Antibacterial activity against Clostridium difficile ATCC BAA 1870 incubated for 48 hrs in anaerobic condition by CLSI-based broth microdilution assay; format: functional; settings: ATCC BAA 1870, 48 h
Escherichia coli [21] = experiment: Inhibition of 6His tagged Escherichia coli UPPP expressed in Escherichia coli C41(DE3) cells preincubated for 15 mins followed by FPP substrate addition and measured after 20 mins by malachite green reagent based assay
Acinetobacter baumannii [22] = experiment: Antibacterial activity against Acinetobacter baumannii ATCC 19606 clinical isolates after 18 to 20 hrs in aerobic condition by CLSI-based broth microdilution assay; format: functional; settings: ATCC 19606 = CIP 70.34 = JCM 6841
Pseudomonas aeruginosa [23] = experiment: Antibacterial activity against Pseudomonas aeruginosa ATCC 15442 clinical isolates after 18 to 20 hrs in aerobic condition by CLSI-based broth microdilution assay; format: functional
[24] = tested on: Staphylococcus epidermidis; experiment: Ratio of MBC to MIC for Staphylococcus epidermidis NRS101 clinical isolates; format: functional
Enterococcus faecium = experiment: Antibacterial activity against vancomycin-resistant Enterococcus faecium ATCC 700221 clinical isolates after 18 to 20 hrs in aerobic condition by CLSI-based broth microdilution assay; format: functional
Shigella flexneri = experiment: Antibacterial activity against Shigella flexneri ATCC 9199 clinical isolates after 18 to 20 hrs in aerobic condition by CLSI-based broth microdilution assay; format: functional
Escherichia coli [25] = experiment: Antibacterial activity against carbapenem-resistant Escherichia coli BAA-2452 clinical isolates after 18 to 20 hrs in aerobic condition by CLSI-based broth microdilution assay; format: functional
Acinetobacter baumannii [26] = experiment: Ratio of MBC to MIC for Acinetobacter baumannii NR 17785 clinical isolates; format: functional
Staphylococcus aureus [27] = experiment: Antibacterial activity against Methicillin-resistant Staphylococcus aureus NRS385-USA500 clinical isolates after 18 to 20 hrs in aerobic condition by CLSI protocol based broth microdilution assay; format: functional
Acinetobacter baumannii [28] = experiment: Ratio of MBC to MIC for Acinetobacter baumannii NR 17786 clinical isolates; format: functional
Staphylococcus aureus [29] = experiment: Antibacterial activity against Methicillin-sensitive Staphylococcus aureus NRS107 clinical isolates after 18 to 20 hrs in aerobic condition by CLSI protocol based broth microdilution assay; format: functional

Row | SMILES | Ratio (Salmonella enteritidis) | Ratio (Streptococcus pneumoniae [2]) | Ratio (Enterococcus faecalis) | Ratio (Klebsiella pneumoniae [3]) | MIC (Escherichia coli [4]) [µg/mL] | MIC (Salmonella enterica) [µg/mL] | Ratio (Escherichia coli [5]) | MIC (Klebsiella pneumoniae [7]) [µg/mL] | MIC (Acinetobacter baumannii [9]) [µg/mL] | MIC (Staphylococcus aureus [10]) [µg/mL] | Ratio (Clostridioides difficile [11]) | Ratio (Salmonella typhimurium) | MIC (Klebsiella pneumoniae [12]) [µg/mL] | Ratio (Staphylococcus aureus [13]) | Ratio (Acinetobacter baumannii [14]) | MIC [15] [µg/mL] | MIC (Pseudomonas aeruginosa [16]) [µg/mL] | MIC (Acinetobacter baumannii [17]) [µg/mL] | MIC (Escherichia coli [18]) [µg/mL] | MIC (Streptococcus pneumoniae [19]) [µg/mL] | also measured
1 | C/C(=N\NC(=N)N)c1cnn(-c2ccc(C#CC3CCCCC3)cc2)c1C | >=1 | <3 | <3 | >=1 | 2 (≈ 5.52 µM) | 8 (≈ 22.1 µM) | >=1 | 8 (≈ 22.1 µM) | 8 (≈ 22.1 µM) | 2 (≈ 5.52 µM) | <3 | >=1 | 16 (≈ 44.1 µM) | <=2 | >=1 | 2 (≈ 5.52 µM) | 16 (≈ 44.1 µM) | 4 (≈ 11 µM) | 4 (≈ 11 µM) | 2 (≈ 5.52 µM) | MIC (Acinetobacter baumannii [1]): 4 µg/mL (≈ 11 µM); MIC (Escherichia coli [6]): 4 µg/mL (≈ 11 µM); inhibition (INH) (Staphylococcus aureus [8]): 22%; MIC (Listeria monocytogenes): 2 µg/mL (≈ 5.52 µM); MIC (Clostridioides difficile [20]): 4 µg/mL (≈ 11 µM); inhibition (Escherichia coli [21]): inactive; MIC (Acinetobacter baumannii [22]): 4 µg/mL (≈ 11 µM); MIC (Pseudomonas aeruginosa [23]): 32 µg/mL (≈ 88.3 µM); Ratio [24]: <3; MIC (Enterococcus faecium): 1 µg/mL (≈ 2.76 µM); MIC (Shigella flexneri): 8 µg/mL (≈ 22.1 µM); MIC (Escherichia coli [25]): 8 µg/mL (≈ 22.1 µM); Ratio (Acinetobacter baumannii [26]): >=1; MIC (Staphylococcus aureus [27]): 2 µg/mL (≈ 5.52 µM); Ratio (Acinetobacter baumannii [28]): >=1; MIC (Staphylococcus aureus [29]): 2 µg/mL (≈ 5.52 µM)
2 | CCCC#Cc1ccc(-n2ncc(/C(C)=N/NC(=N)N)c2C)cc1 | >=1 | <3 | <3 | >=1 | 4 (≈ 12.4 µM) | 16 (≈ 49.6 µM) | >=1 | 8 (≈ 24.8 µM) | 16 (≈ 49.6 µM) | 2 (≈ 6.2 µM) | <3 | >=1 | 16 (≈ 49.6 µM) | <=2 | >=1 | 4 (≈ 12.4 µM) | 32 (≈ 99.3 µM) | 8 (≈ 24.8 µM) | 8 (≈ 24.8 µM) | 4 (≈ 12.4 µM) | MIC (Acinetobacter baumannii [1]): 16 µg/mL (≈ 49.6 µM); MIC (Escherichia coli [6]): 32 µg/mL (≈ 99.3 µM); inhibition (INH) (Staphylococcus aureus [8]): 74%; MIC (Listeria monocytogenes): 4 µg/mL (≈ 12.4 µM); MIC (Clostridioides difficile [20]): 8 µg/mL (≈ 24.8 µM); inhibition (Escherichia coli [21]): inactive; MIC (Acinetobacter baumannii [22]): 8 µg/mL (≈ 24.8 µM); MIC (Pseudomonas aeruginosa [23]): 16 µg/mL (≈ 49.6 µM); Ratio [24]: <3; MIC (Enterococcus faecium): 4 µg/mL (≈ 12.4 µM); MIC (Shigella flexneri): 16 µg/mL (≈ 49.6 µM); MIC (Escherichia coli [25]): 32 µg/mL (≈ 99.3 µM); Ratio (Acinetobacter baumannii [26]): >=1; MIC (Staphylococcus aureus [27]): 2 µg/mL (≈ 6.2 µM); Ratio (Acinetobacter baumannii [28]): >=1; MIC (Staphylococcus aureus [29]): 4 µg/mL (≈ 12.4 µM)
3 | CCCCCC#Cc1ccc(-n2ncc(/C(C)=N/NC3=NCCN3)c2C)cc1 | >=1 | <3 | <3 | >=1 | 2 (≈ 5.31 µM) | > 128 | >=1 | > 128 | > 128 | 2 (≈ 5.31 µM) | <3 | >=1 | > 128 | <=2 | >=1 | 2 (≈ 5.31 µM) | > 128 | > 128 | > 128 | 4 (≈ 10.6 µM) | MIC (Listeria monocytogenes): 2 µg/mL (≈ 5.31 µM); MIC (Clostridioides difficile [20]): 4 µg/mL (≈ 10.6 µM); inhibition (Escherichia coli [21]): inactive; MIC (Acinetobacter baumannii [22]): 8 µg/mL (≈ 21.2 µM); MIC (Pseudomonas aeruginosa [23]): > 128 µg/mL; Ratio [24]: <3; MIC (Enterococcus faecium): 2 µg/mL (≈ 5.31 µM); MIC (Shigella flexneri): > 128 µg/mL; Ratio (Acinetobacter baumannii [26]): >=1; MIC (Staphylococcus aureus [27]): 2 µg/mL (≈ 5.31 µM); Ratio (Acinetobacter baumannii [28]): >=1; MIC (Staphylococcus aureus [29]): 4 µg/mL (≈ 10.6 µM)
